Data reported in US5336485A, “Method for protecting animals against tacrine induced cytotoxic injury using sterol compounds” (priority 1993, dated 1994).
Structures can show the parent of a compound that is named as a salt.

Experiments:
male Sprague-Dawley rats = experiment: CCl4 induced lethality in rats; format: in vivo, rat
Protocol: The in vivo effect of alpha-TS was tested by administering a lethal oral dose of carbon tetrachloride (CC14) to male Sprague-Dawley rats.
In the experiment described in Table 3, a single dose of alpha-TS dissolved in peanut oil:ethanol (3:2) was given to male Sprague-Dawley rats. The dose was given 24 hours prior to an orally administered CCl4 challenge dissolved in peanut oil. Two to nine animals were tested per treatment. The control group comprised rats pretreated with the vehicle only. Survival was monitored for at least 7 days after the toxic insult.
In vivo experiments were performed to determine if the time the ionizable tocopherol analog (alpha-TS) is administered affects the cytoprotective functions. Male Sprague-Dawley rats were given a 100 mg/kg intraperitoneal dose of a tocopherol or succinate analog and were given a lethal dose of CCl4 (2.9g/kg by oral gavage). Table 7 contrasts the times of administration of the tocopherol or succinate analog and the times of administration of the lethal dose of CCl4 with the survival of the rats in the study (3to 6 rats per protective treatment).
Several tocopherol and succinate analogs were tested for CCl4 induced lethality. A single dose of the tocopherol or succinate analog was administered twenty four hours prior to orally administering 2.9 g CCl4 /kg body weight. Three to six animals were analyzed per treatment. The rats were monitored for seven days. […]

rat hepatocytes [1] = experiment: ATP content of rat hepatocyte suspensions; format: cell-based
Description: It is well known that the succinate molecule is utilized by the cell to produce ATP energy. In the tricarboxylic acid cycle, succinate is oxidized by succinate dehydrogenase to produce ATP. Oxidation occurs in the mitochondria and the mitochondria can utilize both succinate formed in the mitochondria or succinate transported to the mitochondria. Increasing ATP production may enhance cellular repair processes as well as normal metabolic processes. For example, the cell's ability to remove free intracellular Ca^2+ during a toxic insult is related to ATP production. Succinate administration stimulates gluconeogenesis to form glucose 6-phosphate which is used for producing energy anaerobically (ATP formation through glycolysis) and for producing reducing equivalents (NADPH formation through the hexose monophosphate shunt needed for lipid and nucleotide biosynthesis and other biosynthetic reductions and enzymatic reactions, e.g., glutathione reductase). An in vitro experiment was conducted to determine the relationship between the release of succinate from alpha-TS and the cellular ATP level. The experiment was performed by incubating a tocopherol analog in a rat hepatocyte suspension and measuring the ATP level at the beginning and end of the test.
(§1) Rat hepatocyte suspensions were subjected to 50 mM EMS and the percentage of cell death, the percentage of intracellular K^+ (a metabolic parameter as discussed above), the depletion of ATP and the effect on lipid peroxidation were monitored.

rat hepatocytes [2] = experiment: Cellular alpha-tocopherol and tocopherol ester content of rat hepatocytes; details: for Hepatocyte Concentration Alpha-T: EMS 3 h
Protocol: (§2) At each time-point, rapid separation of viable from non-viable hepatocytes and medium was accomplished by the dibutyl phthalate centrifugation method. Cell viability was monitored hourly by measuring LDH leakage with a Cobas Analyzer and intracellular [K^+ ]with a flame photometer. LDH was routinely measured in the medium while intracellular K^+ was measured in the 10% perchloric acid lysate of viable cells. Lipid peroxidation was determined by measuring TBA reactants in the medium. […] The samples were diluted with 0.3 ml 1% ascorbate in 0.1 M SDS, 0.4 ml ethanol, sonicated and extracted once with 0.8 ml hexane. Next, the hexane extract was evaporated to dryness with N2, the residue dissolved in 2.5% ascorbate in methanol (1 ml) and analyzed (100 μl) by high-performance liquid chromatograph (HPLC). […] The mobile phase, 95% MeOH was run isocratically and the HPLC retention times for delta and alpha-tocopherol were approximately eleven and sixteen minutes, respectively. […] Following the addition of 0.2 ml 4 M HC1, the neutralized KOH-MeOH extracted with 0.8 ml hexane. […] A standard curve for each tocopherol congener was run with every assay. […] Only viable cells were monitored in the laboratory procedures.
The hepatocytes were subsequently exposed to 50mM EMS for three hours.

cultured rat hepatocytes = experiment: EMS-induced toxicity and lipid peroxidation in primary cultures of rat hepatocytes; format: cell-based; details: for Cell Death / Lipid Peroxidation: 50 mM EMS, 6 hrs
Protocol: To confirm the cytoprotective properties of alpha-TP under physiological conditions in vitro tests using primary cultures of adult rat hepatocytes were conducted (another in vitro model system). Unlike the hepatocyte suspensions used for the in vitro modeling discussed above, cultured hepatocytes retain their in vivo cuboidal shape as a result of attachment to a collagen matrix, and their lifespan in vitro is 5 to 7 days, instead of 8-12 hours (as with suspensions).

rat hepatocytes [3] = experiment: EMS-induced cytotoxicity (LDH leakage/cell death) in rat hepatocyte suspensions; details: for Protection From Toxic Injury: EMS 3 h
Protocol: To determine if alpha-TS is a cytoprotective agent under physiological conditions, liver cells were incubated with Waymouth's medium containing approximately 1 mM extracellular Ca^2+ in the presence and absence of alpha-TS.
as §2
To determine the relative cytoprotective potency of various tocopherol derivatives, the effect of varying doses of a tocopherol analog on the protection against EMS-induced toxicity was examined in vitro on rat hepatocyte suspensions. Specifically, the following ionizable tocopherol congeners were tested: alpha-TS, alpha tocopheryl glutarate (alpha-TG), and alpha tocopheryl phosphate (alpha-TP). […] 0.1 nmoles is the lower detection limit.
In vitro experiments were conducted with a variety of different tocopherol and succinate analogs to determine which were protective against EMS induced toxicity. After five hours of incubation with 50 mM EMS and 25μM of a tocopherol or succinate analog, cytoprotection was determined by comparing the percentage of LDH leakage from control hepatocytes (vehicle only, assumed 100% protection) with the EMS only treated cells (assumed 0% protection).
An in vitro experiment with rat hepatocyte suspensions was performed to determine the effect of esterase inhibitors on alpha-TS.
as §1

liver [4] = experiment: CCl4 induced hepatotoxicity in rats (serum AST/ALT); format: in vivo, rat
Protocol: In vivo experiments were performed to determine if alpha-TS administration protects the liver from chemical toxicity. The liver is the target organ for CCl4. CCl4 is a hepatotoxic agent that induces centrilobular liver necrosis through its metabolism to free radicals. Male Sprague-Dawley rats were given an intraperitoneal dose (100 mg/kg) of a tocopherol analog 24 hours prior to a CCl4 challenge (2.9g/kg given by oral garage). Forty eight hours after the challenge, the rats were sacrificed and the levels of aspartate aminotransferase (AST) and alanine aminotransferase (ALT) were measured.
As discussed above, SGOT levels provide a clinical assessment of hepatotoxicity (liver damage).
Succinate analogs were administered to male Sprague-Dawley rats 20 hours prior to a 1 g CCl4 /kg body weight oral challenge and the AST and ALT serum enzyme levels were measured 48 hours after the challenge.
Similar to the experiments were described above, the ionizable congeners were administered to Sprague-Dawley rats by i.p. injection of a 100 mg ionizable congener/kg body weight dose 20 hours prior to oral administration of a 1 g/kg dose of CCl4, and the AST and ALT levels were measured 48 hours after the CCl4 challenge.

liver [5] = experiment: Partial liver ischemia/reperfusion-induced injury in rats; format: in vivo, rat; details: dihydrocholesterol sulfate vs dihydrocholesterol plus sodium sulfate
Protocol: 20 hours prior to global occlusion, one group of 10 rats was provided with 64 mg cholesterol/kg body weight and 100 mg tris succinate/kg body weight by i.p. injection, and another group of 10 rats was provided with 100 mg cholesteryl succinate/kg body weight. A control group of rats was only partially occluded for the one hour period. Ninety percent of the rats pretreated with cholesteryl succinate tris salt survived while only 10% of those pretreated with the combination of cholesterol and tris succinate survived. Table 22 of a partial ischemia study where male Sprague-Dawley rats were subjected to occlusion of the blood supply to the left lateral and median lobes of the liver for 60 minutes followed by reperfusion for 24 hours. During this time, the normal blood supply to the other lobes of the liver was maintained. […] Serum was obtained for AST and ALT measurements.
^a Partial liver ischemia was induced in male Sprague Dawley rats

[6] = Tissue distribution of alpha-tocopherol and alpha-tocopherol ester in rats; format: in vivo, rat; details: 100 mg/kg ip, 24 h
Protocol: 100 mg/kg body weight of a tocopherol analog was administered to Sprague-Dawley rats using a peanut oil:ethanol vehicle (3:2). Twenty four hours later the rats were sacrificed and the accumulation of the tocopherol analog in the liver was determined.
A similar in vivo experiment to that discussed in conjunction with Table 5 was performed to determine if other tissues accumulate alpha-TS. Male Sprague-Dawley rats were given a 100 mg/kg dose of alpha-TS using a variety of chemical forms and vehicles. A variety of techniques were used to administer the alpha-TS. Twenty four hours later the rats were sacrificed and the tissues were tested for alpha-TS accumulation.

rat hepatocytes [7] = experiment: EMS-induced lipid peroxidation in rat hepatocyte suspensions; format: cell-based; details: Rattus norvegicus, Hepatocyte; 25 μM, 50 mM EMS
Protocol: as §2, §1

[8] = 100 mg/kg, single dose 24 h prior, CCl4 […]
[9] = 100 mg/kg ip (dihydrocholesterol 80 + sodium sulfate 30 mg/kg), 48 h after 1 g/kg CCl4 (Table 35)
[10] = 100 mg/kg ip, PEG 400 vehicle, 48 h after 1 g/kg CCl4 (Table 34)

## Cc1c(C)c2c(c(C)c1OP(=O)(O)O)CCC(C)(CCCC(C)CCCC(C)CCCC(C)C)O2 (racemic) [alpha-TP, dl-alpha-tocopheryl phosphate]
Male Sprague-Dawley rats; [8]
  Days Survived After CCl4 Treatment: 3 days
Rat hepatocytes [1]; 50 μM
  Rate of ATP Depletion: 2.0 ± 0.2 nmoles/10^6 cell/hr
Rat hepatocytes [1]; 50 μM, 0 Hr
  Cellular ATP: 19.4 ± 1.6 nmoles/10^6 cells
Rat hepatocytes [1]; 50 μM, 6 Hr
  Cellular ATP: 7.3 ± 0.2 nmoles/10^6 cells
Rat hepatocytes [2]; EMS
  cellular accumulation of alpha-TP: 2.68 nmols/10^6 cells
Cultured rat hepatocytes; 25 μM
  Cell Death: 16 ± 3%
  Lipid Peroxidation: 2.5 ± 0.9 μmoles MDA/10^6 cells
Cultured rat hepatocytes; 100 μM
  Cell Death: 15 ± 3%
  Lipid Peroxidation: 2.3 ± 0.1 μmoles MDA/10^6 cells
Cultured rat hepatocytes; 250 μM
  Cell Death: 20 ± 3%
  Lipid Peroxidation: 1.7 ± 0.1 μmoles MDA/10^6 cells
Cultured rat hepatocytes; 3.5 mM Ca2+
  cytoprotection at 3.5 mM extracellular Ca2+: eliminated
Rat hepatocytes [3]; Rattus norvegicus, Hepatocyte, read-out: medium concentration with significant protection against EMS toxicity
  minimal effective concentration: ≥ 50 µM

## CC(C)CCC[C@@H](C)[C@H]1CC[C@H]2[C@@H]3CC[C@H]4C[C@@H](OS(=O)(=O)O)CC[C@]4(C)[C@H]3CC[C@]12C [Dihydrocholesterol sulfate, sodium salt]
Liver [4]; [9]
  ALT: 0.02 ± 0.01 10^3 units/L
  AST: 0.17 ± 0.04 10^3 units/L
Liver [4]; [10]
  ALT: 0.03 ± 0.03 10^3 units/L
  AST: 0.15 ± 0.07 10^3 units/L
Liver [4]; Rattus norvegicus, ip, 48 h, read-out: % Hepatoprotection
  inhibition in vivo at 100 mg/kg: 100%
Liver [4]; rats, serum enzyme levels
  protection against CCl4 hepatotoxicity (in words): complete protection against hepatotoxicity
Liver [5]
  ALT: 1305±568

## Cc1c(C)c2c(c(C)c1O)CC[C@@](C)(CCC[C@H](C)CCC[C@H](C)CCCC(C)C)O2 [alpha-T, d-alpha-tocopherol, reference compound]
Male Sprague-Dawley rats; 100 mg/kg ip 24 h prior, […] CCl4 oral
  Survival after CCl4 treatment: No
Male Sprague-Dawley rats; 100 mg/kg ip (Table 5)
  Protection from CCl4: No
Male Sprague-Dawley rats; 100 mg/kg ip, 24 h prior, CCl4 2.2 g/kg
  Days Survived After CCl4 Treatment: 3 days
Male Sprague-Dawley rats; 100 mg/kg ip, 24 h prior, CCl4 3.8 g/kg
  Days Survived After CCl4 Treatment: 2 days
Male Sprague-Dawley rats; 100 mg/kg ip, 24 h prior, CCl4 5.0 g/kg
  Days Survived After CCl4 Treatment: 2 days
Male Sprague-Dawley rats; 100 mg/kg ip, 24 h prior, CCl4 […]
  Days Survived After CCl4 Treatment: 2 days
Male Sprague-Dawley rats; [8]
  Days Survived After CCl4 Treatment: 3 days
Male Sprague-Dawley rats; CCl4 1.7 g/kg
  Days Survived after CCl4: three
[6]
  Liver Concentration Alpha-T: 128 ± 10 nmol/g
Rat hepatocytes [1]; 25 μM
  Rate of ATP Depletion: 1.5 ± 0.2 nmoles/10^6 cell/hr
Rat hepatocytes [1]; 25 μM, 0 Hr
  Cellular ATP: 15.2 ± 1.6 nmoles/10^6 cells
Rat hepatocytes [1]; 25 μM, 6 Hr
  Cellular ATP: 6.3 ± 0.8 nmoles/10^6 cells
Rat hepatocytes [7]
  inhibition at 25 µM: 9%
Rat hepatocytes [2]; 25 μM
  Hepatocyte Concentration Alpha-T: 2.1 ± 0.7 nmol/10^6 cells
Rat hepatocytes [2]; 25 μM, Table 2
  Cellular alpha-T: 2.6 nmoles/10^6 cells
Rat hepatocytes [2]; 50 μM
  Hepatocyte Concentration Alpha-T: 6.1 ± 0.7 nmol/10^6 cells
Rat hepatocytes [2]; 250 μM
  Hepatocyte Concentration Alpha-T: 23.7 ± 2.4 nmol/10^6 cells
Rat hepatocytes [3]; 25 μM
  Protection From Toxic Injury: No
Rat hepatocytes [3]; 50 μM
  Protection From Toxic Injury: No
Rat hepatocytes [3]; 250 μM
  Protection From Toxic Injury: No
Rat hepatocytes [3]; Rattus norvegicus, Hepatocyte, 5 h, read-out: Percent Cytoprotection
  inhibition at 25 µM: 8 ± 10%
Rat hepatocytes [3]; Rattus norvegicus, Hepatocyte, read-out: % Protection
  inhibition at 25 µM: 19%
Rat hepatocytes [3]; up to 250 μM
  protection of hepatocytes against EMS: Protection was not afforded
